Test results taken from paper PMC11079024, “Identification of a family of species-selective complex I inhibitors as potential anthelmintics” (Nature Communications, 2024).
pIC50: −log10 of the molar value. Read-outs that look alike come from different tables or passages of the source.

Key:
[1] = target: C. elegans (N2) complex I (NADH:ubiquinone oxidoreductase) (Caenorhabditis elegans, UniProt P24887+Q93873+Q94360); test: biochemical; assay type: biochemical; conditions: for Log IC50 C. elegans complex I: log10 of IC50 in µM, C. elegans mitochondria; for activity at 0.0001 µM / activity at 0.0005 µM / activity at 0.001 µM / activity at 0.0025 µM / activity at 0.005 µM / activity at 0.013 µM / activity at 0.025 µM / activity at 0.063 µM / activity at 0.125 µM / activity at 0.313 µM / activity at 0.625 µM / activity at 1.5 µM / activity at 3 µM / activity at 15 µM / activity at 37.5 µM / activity at 75 µM: read-out: C. elegans mitochondrial complex I activity
Sequence of C. elegans (N2) complex I (NADH:ubiquinone oxidoreductase) (Q94360 17-199): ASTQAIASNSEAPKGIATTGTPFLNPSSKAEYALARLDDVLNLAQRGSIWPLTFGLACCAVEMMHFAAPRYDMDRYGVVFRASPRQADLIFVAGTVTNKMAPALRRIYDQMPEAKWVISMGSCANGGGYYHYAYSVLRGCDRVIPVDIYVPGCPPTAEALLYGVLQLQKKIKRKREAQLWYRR
Sequence of C. elegans (N2) complex I (NADH:ubiquinone oxidoreductase) (P24887 whole entry): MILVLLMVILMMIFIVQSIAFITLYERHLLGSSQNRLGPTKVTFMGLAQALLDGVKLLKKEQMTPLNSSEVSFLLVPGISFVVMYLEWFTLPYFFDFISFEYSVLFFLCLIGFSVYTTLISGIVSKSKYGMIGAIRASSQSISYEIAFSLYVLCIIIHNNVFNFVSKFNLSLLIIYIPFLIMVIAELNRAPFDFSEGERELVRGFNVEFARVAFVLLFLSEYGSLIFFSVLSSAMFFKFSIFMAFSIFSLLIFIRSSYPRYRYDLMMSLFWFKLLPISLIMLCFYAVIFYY
Sequence of C. elegans (N2) complex I (NADH:ubiquinone oxidoreductase) (Q93873 31-482): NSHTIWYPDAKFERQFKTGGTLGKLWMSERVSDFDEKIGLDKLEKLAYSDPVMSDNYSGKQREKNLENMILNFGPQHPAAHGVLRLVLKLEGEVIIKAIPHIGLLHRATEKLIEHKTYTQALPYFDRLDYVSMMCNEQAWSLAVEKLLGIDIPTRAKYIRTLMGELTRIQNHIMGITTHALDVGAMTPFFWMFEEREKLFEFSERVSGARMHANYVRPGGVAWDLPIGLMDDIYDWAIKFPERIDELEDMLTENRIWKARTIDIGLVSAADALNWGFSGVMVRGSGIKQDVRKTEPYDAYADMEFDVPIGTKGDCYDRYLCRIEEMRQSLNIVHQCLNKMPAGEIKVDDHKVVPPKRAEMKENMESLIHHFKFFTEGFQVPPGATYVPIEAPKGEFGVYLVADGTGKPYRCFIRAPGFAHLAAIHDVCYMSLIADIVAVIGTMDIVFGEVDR
Summary of the method: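 Compounds were tested against freeze-thawed isolated mitochondria (0.2 mg/mL protein). NADH:decylubiquinone activity was monitored via DCIP absorbance at 600 nm, and the initial linear slope was normalised to solvent controls.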

in vitro = conditions: human; for viability at 2 days, 3.13 µM / viability at 2 days, 6.25 µM / viability at 2 days, 12.5 µM / viability at 2 days, 25 µM / viability at 2 days, 50 µM / viability at 2 days, 100 µM: HEK293 cells (Flp-In-293), HEK293 viability
L1 wild-type C. elegans = conditions: for Screen "Hit": 50 μM
[2] = in vitro complex I dose response on C. elegans mitochondria, average of at least two biological replicates, fit in R (DRC), read-out: IC50 C. elegans complex I
[3] = wild-type (N2) mitochondria, read-out: C. elegans Complex I IC50
[4] = wild-type C. elegans mitochondria, estimated from fitted dose-response curves, read-out: C. elegans Complex I IC50
[5] = KCN survival assay, hit = relative motility below 0.25
[6] = hit = relative motility below 0.25 3 hours after removal of KCN
[7] = Dose 0.2 µM, mean of at least three biological replicates
[8] = wild-type C. elegans mitochondria, read-out: C. elegans Complex I IC50

Compound	pIC50 [1, 2]	Log IC50 C. elegans complex I [1]	pIC50 [1, 3]	pIC50 [1, 4]	CC50 at 2 days (in vitro)	Screen "Hit" (L1 wild-type C. elegans; [5])	activity at 0.0001 µM [1]	activity at 0.0005 µM [1]	activity at 0.001 µM [1]	activity at 0.0025 µM [1]	activity at 0.005 µM [1]	activity at 0.013 µM [1]	activity at 0.025 µM [1]	activity at 0.063 µM [1]	activity at 0.125 µM [1]	activity at 0.313 µM [1]	activity at 0.625 µM [1]	activity at 1.5 µM [1]	activity at 3 µM [1]	activity at 15 µM [1]	further results
Brc1ccc(Cn2cnc3ccccc32)cc1 [Compound 5542661]	6.28	-0.28 µM	6.28	6.28	> 100000 nM	Y (hits were identified as compounds that reduced relative motility below 0.25 (75% reduction))															
Cc1ccc(C(C)C)c(OCC(O)Cn2cnc3ccccc32)c1 (centres unmarked) [Compound 6093301]	6.44	-0.44 µM		6.44	21800 nM		99.6%	97.6%	98.6%	105%	96.1%	93.6%	90.6%	81.2%	72.6%	50.3%	38.5%	20.3%	11.5%	1.13%	activity at 37.5 µM [1]: 0%; activity at 75 µM [1]: 0%; viability at 2 days, 3.13 µM (in vitro): 90.1%; viability at 2 days, 6.25 µM (in vitro): 92.9%; viability at 2 days, 12.5 µM (in vitro): 85.6%; viability at 2 days, 25 µM (in vitro): 32.4%; viability at 2 days, 50 µM (in vitro): 7.3%; viability at 2 days, 100 µM (in vitro): 7.2%; Screen "Hit" (L1 wild-type C. elegans; [6]): Y (hits were identified as compounds that reduced relative motility below 0.25 (75% reduction)); C. elegans KCN Survival (L1 wild-type C. elegans; [7]): 1.001; C. elegans KCN Survival (L1 wild-type C. elegans; Dose 0.39 µM): 1.016; C. elegans KCN Survival (L1 wild-type C. elegans; Dose 1.56 µM): 1.025; C. elegans KCN Survival (L1 wild-type C. elegans; Dose 3.13 µM): 0.981; C. elegans KCN Survival (L1 wild-type C. elegans; Dose 6.25 µM): 0.940; C. elegans KCN Survival (L1 wild-type C. elegans; Dose 12.5 µM): 0.855; C. elegans KCN Survival (L1 wild-type C. elegans; Dose 25 µM): 0.337; C. elegans KCN Survival (L1 wild-type C. elegans; Dose 50 µM): 0.161; C. elegans KCN Survival (L1 wild-type C. elegans; Dose 100 µM): 0.196
Cc1nc2ccccc2n1CCOc1ccccc1Cl [Compound 5561642]	5.63	0.37 µM			93100 nM		91.5%	94%	89.2%	95%	93.1%	84.7%	83.1%	81.1%	84.1%	65.5%	71.7%	51.9%	40.7%	12.4%	activity at 37.5 µM [1]: 4.46%; activity at 75 µM [1]: 4.41%; pIC50 [1, 8]: 5.63; viability at 2 days, 3.13 µM (in vitro): 100%; viability at 2 days, 6.25 µM (in vitro): 100%; viability at 2 days, 12.5 µM (in vitro): 100%; viability at 2 days, 25 µM (in vitro): 100%; viability at 2 days, 50 µM (in vitro): 81.4%; viability at 2 days, 100 µM (in vitro): 46.4%; Screen "Hit" (L1 wild-type C. elegans; [6]): Y (hits were identified as compounds that reduced relative motility below 0.25 (75% reduction)); C. elegans KCN Survival (L1 wild-type C. elegans; [7]): 0.982; C. elegans KCN Survival (L1 wild-type C. elegans; Dose 0.39 µM): 1.047; C. elegans KCN Survival (L1 wild-type C. elegans; Dose 1.56 µM): 0.991; C. elegans KCN Survival (L1 wild-type C. elegans; Dose 3.13 µM): 0.985; C. elegans KCN Survival (L1 wild-type C. elegans; Dose 6.25 µM): 0.849; C. elegans KCN Survival (L1 wild-type C. elegans; Dose 12.5 µM): 0.500; C. elegans KCN Survival (L1 wild-type C. elegans; Dose 25 µM): 0.148; C. elegans KCN Survival (L1 wild-type C. elegans; Dose 50 µM): 0.182
Cc1ccc(Cn2c(C(C)C)nc3ccccc32)cc1 [Compound 6586153]	5.03	0.97 µM	5.03			Y (hits were identified as compounds that reduced relative motility below 0.25 (75% reduction))															pIC50 [1, 8]: 5.03; CC50 at 2 days (in vitro; HEK293 Cell Viability Assay LC50, HEK293 cells, estimated from fitted dose-response curves): > 100000 nM
